From patent US6140354A, “N-substituted aminotetralins as ligands for the neuropeptide Y Y5 receptor useful in the treatment of obesity and other disorders” (Ortho-McNeil Pharmaceutical, Inc., priority 1999, dated 2000)

Columns and labels:
[1] = Rodent Feeding Model: Measurement of Food Intake in Food-Deprived Rats; type: in vivo, Male Long-Evans rats; conditions: 30 mg/kg i.p., N = 8; for Food Consumption (% chg.) 0-2 hrs / Food Consumption (% chg.) 0-6 hrs / Food Consumption (% chg.) 2-6 hrs: vs vehicle, negative = reduction
Method: Male Long-Evans rats (180-200 grams) are housed individually and are maintained on a once-a-day feeding schedule (i.e. 10 a.m. until 4 p.m.) for five days following quarantine to allow the animals to acclimate to feeding on powdered chow (#5002 PMI Certified Rodent Meal) during the allotted time. The chow is made available in an open jar, anchored in the cage by a wire, with a metal follower covering the food to minimize spillage. Water is available ad-libitum.
Animals are fasted for 18 hours prior to testing. At the end of the fasting period, animals are administered either compounds of the invention or vehicle. Vehicle and test compounds are administered either orally (5 mL/kg) 60 minutes prior to the experiment, or 30 minutes prior when given subcutaneously (1 mL/kg) or intraperitoneally (1 mL/kg). Compounds of the invention are administered orally as a suspension in aqueous 0.5% methylcellulose-0.4% Tween 80, or intraperitoneally as a solution or suspension in PEG 200; compound concentrations typically range from 1 mg/kg to 100 mg/kg, preferably from 10-30 mg/kg. Food intake is measured at 2, 4, and 6 hours after administration by weighing the special jar containing the food before the experiment and at the specified times. Upon completion of the experiment, all animals are given a one-week washout period before retesting.
Percent reduction of food consumption is calculated subtracting the grams of food consumed by the treated group from the grams of food consumed by the control group divided by the grams of food consumed by the control group, multiplied by 100. [formula] A negative value indicates a reduction in food consumption and a positive value indicates an increase in food consumption.

[2] = molecular target: T1, human neuropeptide Y5 receptor (Homo sapiens, UniProt Q15761); test: NPY5 HTS Centrifugation Assay: competition with 125I-PYY for binding to NPY5-transfected HEK293 cell membranes; conditions: 80 pM 125I-PYY, 1 hr room temperature, read-out: % Inh @ 3 uM (% Inhibition of ^125 I-PYY Binding)
T1 construct: expressed in transfected cells
T1 sequence (Q15761 1-445): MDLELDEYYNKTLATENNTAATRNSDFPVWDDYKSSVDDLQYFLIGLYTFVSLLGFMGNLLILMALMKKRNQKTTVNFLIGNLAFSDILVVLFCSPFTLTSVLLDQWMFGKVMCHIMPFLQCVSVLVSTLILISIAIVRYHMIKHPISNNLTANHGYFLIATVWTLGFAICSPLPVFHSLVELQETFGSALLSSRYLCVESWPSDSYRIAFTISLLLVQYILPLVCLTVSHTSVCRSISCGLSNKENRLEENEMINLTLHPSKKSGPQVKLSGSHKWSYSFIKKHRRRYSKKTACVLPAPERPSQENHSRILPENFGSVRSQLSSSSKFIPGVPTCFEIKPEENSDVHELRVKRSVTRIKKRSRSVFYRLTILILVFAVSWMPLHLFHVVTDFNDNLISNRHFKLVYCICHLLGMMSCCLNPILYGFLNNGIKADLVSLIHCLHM
Method: The compounds described in this invention were evaluated for binding to the human neuropeptide Y5 receptor.
The human NPY5 receptor cDNA (Genbank Accession number U66275) was inserted into the vector pClneo (Invitrogen) and transfected into human embryonic kidney cells (HEK-293) via Calcium phosphate method (Cullen 1987). Stably transfected cells were selected with G-418 (600 ug/mL). Stably transfected cells served as the source for the membranes for the NPY5 receptor binding assay.
NPY5-transfected HEK293 cells were grown to confluence in 150 cm^2 culture dishes. Cells were washed once with phosphate-buffered saline (Gibco Cat#14040-133). Cells were then incubated in phosphate-buffered saline without Calcium and without Magnesium, supplemented with 2 mM EDTA. Cells were incubated for 10 minutes at room temperature and the cells were collected by repetitive pipeting. Cells were formed into pellets and then frozen at -80 until needed. Frozen pellets were homogenized with a polytron at full speed for 12 seconds in a homogenization buffer (20 mM Tris HCl, 5 mM EDTA, pH 7.4). Homogenates were centrifuged for 5 minutes at 4C at 200 g. Supernatants were transferred to corex tubes and centrifuged for 25 minutes at 28,000 g. Pellets were re-suspended in Binding (20 mM HEPES, 10 mM NaCl, 0.22 mM KH2 PO4, 1.3 mM CaCl2, 0.8 mM MgSO4, pH 7.4). Membranes were kept on ice until use.
A competition binding assay, known to those skilled in the art, was used in which aminotetralins (I) compete with ^125 I-PYY for binding to cell membranes. In simple terms, the less ^125 I-PYY bound to the membranes implies that a compound is a good inhibitor (competitor). Bound ^125 I-PYY is determined by centrifugation of membranes, aspirating supernatant, washing away residual ^125 I-PYY and subsequently counting the bound sample in a g-counter.
Compounds to be tested were prepared as 10× stocks in binding buffer and added first to assay tubes (RIA vials, Sarstedt). Twenty (20) μL of each 10× compound stock is pipeted into vials and 80 μL of ^125 I-PYY (NEN catalog number NEX240), which has been diluted to a concentration of 200 pM in 0.25% BSA in binding buffer, is added to the compound tubes (final concentration of ^125 I-PYY is 80 pM). To each tube is added 100 μL of membranes and the mixture is agitated by pipeting 2 times. Samples are incubated for 1 hr at room temperature. Aluminum cast plates (Sarstedt) containing the vials are then centrifuged 10 minutes at 3200 rpm in a Sorvall RT6000. Supernatant is then aspirated. To each vial 400 μL PBS is added and this is then aspirated again. Vials are then put in carrier polypropylene 12×75 tube and counted in gamma counter (Packard). Non-specific binding is determined in the presence of 300 nM NPY. Percent inhibition of ^125 I-PYY binding is calculated by subtracting non-specific binding from the test samples (compound (I)), taking these counts and dividing by total binding, and multiplying by 100. Inhibitory concentration values (IC50) of compounds that show appreciable inhibition of ^125 I-PYY binding are calculated by obtaining percent inhibition of ^125 I-PYY binding values at different concentrations of the test compound, and using a graphing program such as GraphPad Prism (San Diego, Calif.) to calculate the concentration of test compound that inhibits fifty-percent of ^125 I-PYY binding (Table 4). These operations are known to those skilled in the art.

[3] = cited from earlier work
[4] = icv or into the amygdala; cited from earlier work
[5] = test system: forskolin-stimulated cAMP production/levels in a neuroblastoma cell line; conditions: cited from earlier work
[6] = animal models of learning; cited from earlier work
classic Y1 receptor = conditions: cited from earlier work

Row | Compound | Food Consumption (grams) 0-2 hrs [1] | Food Consumption (% chg.) 0-2 hrs [1] | Food Consumption (grams) 0-6 hrs [1] | Food Consumption (% chg.) 0-6 hrs [1] | Food Consumption (grams) 2-6 hrs [1] | Food Consumption (% chg.) 2-6 hrs [1] | inhibition at 3 µM [2] | food intake ([3]; as little as one-billionth of a gram injected directly into the CNS, satiated rats) | anxiolytic effects [4] | forskolin-stimulated cAMP production/levels [5] | memory and performance scores [6] | feeding ([3]; NPY fragment) | binding at the classic Y1 receptor (classic Y1 receptor)
1 | COc1ccc2c(c1)CCC(NC[C@H]1CC[C@H](CNS(=O)(=O)c3ccccc3F)CC1)C2Cc1cccnc1 (relative stereo) [Compound 43] | 6.63 g | -17.1% | 15.25 g | -17.6% | 8.63 g | -17.8% | – | – | – | – | – | – | –
2 | COc1ccc2c(c1)CC[C@H](NC[C@H]1CC[C@H](CNS(=O)(=O)c3ccc(OC)c(OC)c3)CC1)[C@@H]2Cc1ccccc1 (relative stereo) [Compound 53] | 5.75 g | -33.3% | 11.88 g | -40.2% | 6.13 g | -45.6% | – | – | – | – | – | – | –
3 | O=S(=O)(NC[C@H]1CC[C@H](CN[C@H]2CCc3cc(O)ccc3[C@H]2Cc2cccnc2)CC1)c1ccccc1F (relative stereo) [Compound 44, rac-[1α,2α(trans)]-N-[[[[[1,2,3,4-tetrahydro-6-hydroxy-1-(3-pyridinylmethyl)-2-naphthalenyl]amino]methyl]-4-cyclohexyl]methyl]2-fluorobenzenesulfonamide] | 4.75 g | -40.6% | 14.00 g | -24.3% | 9.25 g | -11.9% | 101% | – | – | – | – | – | –
4 | Neuropeptide Y: single peptide protein that consists of thirty-six amino acids containing an amidated C-terminus | – | – | – | – | – | – | – | causes satiated rats to overeat | produces anxiolytic effects | inhibits forskolin-stimulated cAMP production/levels | improves memory and performance scores | – | –
5 | NPY2-36: NPY fragment | – | – | – | – | – | – | – | – | – | – | – | potent inducer of feeding | poor binding
6 | O=S(=O)(NC[C@H]1CC[C@H](CNC2CCc3cc(F)ccc3C2Cc2cccnc2)CC1)c1ccccc1F (relative stereo) [Compound 111] | 5.13 g | -35.9% | 12.63 g | -31.7% | 7.50 g | -28.6% | – | – | – | – | – | – | –
